This note sets out measurements from patent US20240025906A1 (NEURON23, INC., priority 2022, published 2024).

The test system of assay [1] is JAK1/TYK2 pSTAT5 (Tyr694/699) in THP-1 cell line. Kind of assay: IFNa-stimulated JAK1/TYK2 pSTAT5 (Tyr694/699) inhibition cellular assay, AlphaLISA. Conditions: Homo sapiens; THP-1 cells, IFNa-stimulated, AlphaLISA (Assay B); read-out: Cellular_THP1_IFNa-pSTATS_TYK2. It is filed as cell-based. In outline: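 An eight-point 6-fold titration of compound (0.04–10000 nM final) is given to THP-1 cells for 1 h before 30 min of IFNa exposure. Phospho-STAT5 is read by AlphaLISA at 615 nm. IC50 values are derived by logistic regression with bottom set to 0 and Hill slope set to −1.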
On the technique in general: Alpha assays give light when donor and acceptor beads are brought close together.

Another assay concerns the target T1, TYK2 JH2 (Homo sapiens, UniProt P29597).
T1 construct: purchased DiscoverX (KINOMEscan KdELECT service); host or cells: E. coli BL21-derived (T7 phage display) or HEK-293
The experiment in a line: TYK2 JH2 binding assay (KINOMEscan KdELECT competitive binding). Conditions: TYK2 JH2 domain, DiscoverX KINOMEscan KdELECT (Assay A); read-out: Biochemical TYK2_DiscoverX_JH2_BND_Kd. Summed up: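 Kd values come from qPCR measurement of kinase retained on an immobilized-ligand resin after 1 h room-temperature competition with compound in an 11-point, 3-fold series.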

T1 sequence (P29597 589-875 limits assumed): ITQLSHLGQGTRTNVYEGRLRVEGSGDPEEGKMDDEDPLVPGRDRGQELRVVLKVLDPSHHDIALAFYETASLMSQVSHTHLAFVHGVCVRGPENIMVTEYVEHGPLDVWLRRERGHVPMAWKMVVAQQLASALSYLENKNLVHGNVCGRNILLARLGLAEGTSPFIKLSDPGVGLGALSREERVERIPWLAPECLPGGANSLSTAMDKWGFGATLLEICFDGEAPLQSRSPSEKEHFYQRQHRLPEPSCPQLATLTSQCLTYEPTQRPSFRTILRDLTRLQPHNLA

Take `CNc1ncc(-c2nc3ccc(N4CCC(F)C4)cn3n2)c2cc(NC(=O)C3CC3)ncc12` (centres unmarked) [Example 486, N-(5-(6-(3-fluoropyrrolidin-1-yl)-[1,2,4]triazolo[1,5-a]pyridin-2-yl)-8-(methylamino)-2,7-naphthyridin-3-yl)cyclopropanecarboxamide]: the IC50 in assay [1] is no more than 500 nM. Further, the Kd on TYK2 JH2 was no more than 100 nM.

With `CNc1ncc(-c2nc3ccc(N4C5CCC4COC5)cn3n2)c2cc(NC(=O)C3CC3)ncc12` [Example 487, N-(5-(6-(3-oxa-8-azabicyclo[3.2.1]octan-8-yl)-[1,2,4]triazolo[1,5-a]pyridin-2-yl)-8-(methylamino)-2,7-naphthyridin-3-yl)cyclopropanecarboxamide], in assay [1], the IC50 is no more than 500 nM. The Kd at TYK2 JH2 was no more than 100 nM.

Turning to `CNc1ncc(-c2nc3ccc(N4C[C@@H]5C[C@H]4CO5)cn3n2)c2cc(NC(=O)C3CC3)ncc12` [Example 488, N-(5-(6-((1S,4S)-2-oxa-5-azabicyclo[2.2.1]heptan-5-yl)-[1,2,4]triazolo[1,5-a]pyridin-2-yl)-8-(methylamino)-2,7-naphthyridin-3-yl)cyclopropanecarboxamide], in assay [1], the IC50 was no more than 500 nM. Further, the Kd on TYK2 JH2 was no more than 100 nM.

On to `CNc1ncc(-c2nc3ccc(N4C[C@H]5C[C@@H]4CO5)cn3n2)c2cc(NC(=O)C3CC3)ncc12` [Example 489, N-(5-(6-((1R,4R)-2-oxa-5-azabicyclo[2.2.1]heptan-5-yl)-[1,2,4]triazolo[1,5-a]pyridin-2-yl)-8-(methylamino)-2,7-naphthyridin-3-yl)cyclopropanecarboxamide], for which the IC50 in assay [1] was no more than 500 nM. The Kd on TYK2 JH2 was no more than 100 nM.

With `CNc1ncc(-c2nc3cccc(Cl)n3n2)c2cc(NC(=O)C3CC3)ncc12` [Example 490, N-(5-(5-chloro-[1,2,4]triazolo[1,5-a]pyridin-2-yl)-8-(methylamino)-2,7-naphthyridin-3-yl)cyclopropanecarboxamide], the IC50 in assay [1] is no more than 500 nM. In addition, the Kd on TYK2 JH2 was no more than 100 nM.

For the compound `CNc1ncc(-c2nc3c(Cl)cccn3n2)c2cc(NC(=O)C3CC3)ncc12` [Example 491, N-(5-(8-chloro-[1,2,4]triazolo[1,5-a]pyridin-2-yl)-8-(methylamino)-2,7-naphthyridin-3-yl)cyclopropanecarboxamide], the IC50 in assay [1] is no more than 500 nM. Further, the Kd at TYK2 JH2 was no more than 100 nM.

`CNc1ncc(-c2nc3cc(OC)ccn3n2)c2cc(NC(=O)C3CC3)ncc12` [Example 492, N-(5-(7-methoxy-[1,2,4]triazolo[1,5-a]pyridin-2-yl)-8-(methylamino)-2,7-naphthyridin-3-yl)cyclopropanecarboxamide]: the IC50 in assay [1] was no more than 500 nM. For the same compound, at TYK2 JH2, the Kd is no more than 100 nM.

Take `CNc1ncc(-c2nc3ccc(C(C)(F)F)cn3n2)c2cc(NC(=O)C3CC3)ncc12` [Example 493, N-(5-(6-(1,1-difluoroethyl)-[1,2,4]triazolo[1,5-a]pyridin-2-yl)-8-(methylamino)-2,7-naphthyridin-3-yl)cyclopropanecarboxamide]: in assay [1], the IC50 is no more than 500 nM. The Kd on TYK2 JH2 is no more than 100 nM.

`CNc1ncc(-c2nc3ccc(OC(F)(F)F)cn3n2)c2cc(NC(=O)C3CC3)ncc12` [Example 493A, N-(8-(methylamino)-5-(6-(trifluoromethoxy)-[1,2,4]triazolo[1,5-a]pyridin-2-yl)-2,7-naphthyridin-3-yl)cyclopropanecarboxamide]: the IC50 in assay [1] was no more than 500 nM. The Kd at TYK2 JH2 is no more than 100 nM.

Turning to `CNc1ncc(-c2nc3ccc(OC4CC4)cn3n2)c2cc(NC(=O)C3CC3)ncc12` [Example 494, N-(5-(6-cyclopropoxy-[1,2,4]triazolo[1,5-a]pyridin-2-yl)-8-(methylamino)-2,7-naphthyridin-3-yl)cyclopropanecarboxamide], the IC50 in assay [1] was no more than 500 nM. Besides, the Kd at TYK2 JH2 is no more than 100 nM.

For the compound `CNc1ncc(-c2nc3ccc(OCC4CC4)cn3n2)c2cc(NC(=O)C3CC3)ncc12` [Example 495, N-(5-(6-(cyclopropylmethoxy)-[1,2,4]triazolo[1,5-a]pyridin-2-yl)-8-(methylamino)-2,7-naphthyridin-3-yl)cyclopropanecarboxamide], the IC50 in assay [1] was no more than 500 nM. In addition, the Kd at TYK2 JH2 was no more than 100 nM.

Take `CNc1ncc(-c2nc3ccc(C(F)(F)F)cn3n2)c2cc(NC(=O)C3CC3)ncc12` [Example 496, N-(8-(methylamino)-5-(6-(trifluoromethyl)-[1,2,4]triazolo[1,5-a]pyridin-2-yl)-2,7-naphthyridin-3-yl)cyclopropanecarboxamide]: the IC50 in assay [1] was no more than 500 nM. In addition, the Kd on TYK2 JH2 was no more than 100 nM.

In the case of `CNc1ncc(-c2nc3ccc(S(C)(=O)=O)cn3n2)c2cc(NC(=O)C3CC3)ncc12` [Example 497, N-(8-(methylamino)-5-(6-(methylsulfonyl)-[1,2,4]triazolo[1,5-a]pyridin-2-yl)-2,7-naphthyridin-3-yl)cyclopropanecarboxamide], in assay [1], the IC50 was no more than 500 nM. For the same compound, the Kd at TYK2 JH2 was no more than 100 nM.

For the compound `CNc1ncc(-c2nc3ccc(OCC(C)(C)C#N)cn3n2)c2cc(NC(=O)C3CC3)ncc12` [Example 498, N-(5-(6-(2-cyano-2-methylpropoxy)-[1,2,4]triazolo[1,5-a]pyridin-2-yl)-8-(methylamino)-2,7-naphthyridin-3-yl)cyclopropanecarboxamide], the IC50 in assay [1] is no more than 500 nM. Besides, the Kd on TYK2 JH2 is no more than 100 nM.

Take `CNc1ncc(-c2nc3cc(F)c(N4CCOC(C)C4)cn3n2)c2cc(NC(=O)C3CC3)ncc12` (centres unmarked) [Example 499, N-(5-(7-fluoro-6-(2-methylmorpholino)-[1,2,4]triazolo[1,5-a]pyridin-2-yl)-8-(methylamino)-2,7-naphthyridin-3-yl)cyclopropanecarboxamide]: the IC50 in assay [1] is no more than 500 nM. The Kd at TYK2 JH2 was no more than 100 nM.

On to `CNc1ncc(-c2nc3ccc(OCc4ccccc4)cn3n2)c2cc(NC(=O)C3CC3)ncc12` [Example 500, N-(5-(6-(benzyloxy)-[1,2,4]triazolo[1,5-a]pyridin-2-yl)-8-(methylamino)-2,7-naphthyridin-3-yl)cyclopropanecarboxamide], for which the IC50 in assay [1] was no more than 500 nM. On TYK2 JH2, the Kd is no more than 100 nM.

Take `CNc1ncc(-c2nc3ccc(OCC(C)(C)O)cn3n2)c2cc(NC(=O)C3CC3)ncc12` [Example 501, N-(5-(6-(2-hydroxy-2-methylpropoxy)-[1,2,4]triazolo[1,5-a]pyridin-2-yl)-8-(methylamino)-2,7-naphthyridin-3-yl)cyclopropanecarboxamide]: the IC50 in assay [1] was no more than 500 nM. Also, at TYK2 JH2, the Kd was no more than 100 nM.

Turning to `CNc1ncc(-c2nc3ccc(N4CC5CC(CN(C)C5)C4)cn3n2)c2cc(NC(=O)C3CC3)ncc12` [Example 502, N-(5-(6-(7-methyl-3,7-diazabicyclo[3.3.1]nonan-3-yl)-[1,2,4]triazolo[1,5-a]pyridin-2-yl)-8-(methylamino)-2,7-naphthyridin-3-yl)cyclopropanecarboxamide], in assay [1], the IC50 is no more than 500 nM. In addition, the Kd on TYK2 JH2 is no more than 100 nM.

On to `CNc1ncc(-c2nc3ccc(C)cn3n2)c2cc(NC(=O)C3CC3)ncc12` [Example 503, N-(5-(6-methyl-[1,2,4]triazolo[1,5-a]pyridin-2-yl)-8-(methylamino)-2,7-naphthyridin-3-yl)cyclopropanecarboxamide], for which, in assay [1], the IC50 was no more than 500 nM. Moreover, the Kd at TYK2 JH2 was no more than 100 nM.
